Here are results for eleven compounds from patent US11548868B2, “Heterocyclic compounds, compositions comprising heterocyclic compound, and methods of use thereof” (JS INNOPHARM (SHANGHAI) LTD, priority 2017, dated 2023).

Each structure is given as a SMILES string.

In assay [1] the target is T1, TDO2 in A172 cancer cells (Homo sapiens, UniProt P48775).
T1 construct: endogenous in cells; host or cells: A172 cancer cells
The assay is described as follows: TDO2 Cellular Assay (kynurenine production in A172 cancer cells). The conditions noted are these: L-Trp 1 mM, 24 hours incubation, kynurenine at 490 nm. In kind it is cell-based. In outline: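 Kynurenine output of A172 cells was read colorimetrically at 490 nm (Ehrlich reagent after TCA hydrolysis at 50 °C). Cells had 1 mM L-Trp plus compound at 0–25 μM in 0.25% DMSO for 24 h; IC50 values were fitted non-linearly from percent inhibition relative to vehicle.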

Assay [2] has as its target T2, IDO1 in Hela cancer cells (Homo sapiens, UniProt P14902).
T2 construct: endogenous in cells; host or cells: Hela cancer cells stimulated with human IFN-γ
The assay is described as follows: IDO1 Cellular Assay (kynurenine production in IFN-γ stimulated Hela cancer cells). The format is cell-based. The note with it: human IFN-γ 50 ng/mL, 48 hours incubation, kynurenine at 490 nm. Here is the method: Hela cancer cells (5×10^3 per well) with 85 μL DMEM medium containing 10% FBS were seeded in a 96-well plate and incubated at 95% humidity and 5% CO2 at 37° C. for 24 hours. human IFN-γ (10 μL, 50 ng/mL final concentration) and 5 μL serial dilutions of the test compounds were added into each well. The test compounds were dissolved in DMSO, and successively diluted with pH7.5 buffer (with final DMSO concentration of 0.25%) resulting in final concentrations of the test compounds ranging from 0 to 25 μM (0, 2.5, 7.5, 25, 75, 250, 750, 2500, 7500, & 25000 nM). After 48 hours of incubation, 70 uL of the supernatant per well was transferred to a new 96 well plate. Trichloroacetic acid (6.1 N, 8 μL) was mixed into each well and incubated at 50° C. for 30 min to hydrolyze N-formylkynurenine produced by IDO to kynurenine. The reaction mixture was then centrifuged for 10 min at 2500 RPM to remove sediments. 50 μL of the supernatant per well was transferred to another 96 well plate and mixed with 50 uL of 2% (w/v) p-dimethylaminobenzaldehyde in acetic acid. The yellow color derived from kynurenine was measured at 490 nm using a microplate reader. Percent inhibition of the test compounds was determined by measuring the decrease in kynurenine as compared to the control of DMSO vehicle, which was calculated by formula of (WC-WT)/WC, where WC is the mean absorbance of the control well minus blank well; WT is the mean absorbance of the test well minus the blank well. Data was analyzed by GraphPad Prism 5 and the IC50 values were obtained by non-linear regression.
The IC50 values of for Compounds disclosed are listed in Table 2, A′: ≤0.5 μM; B′: >0.5 μM and ≤1 μM; C′: >1.0 μM and ≤5 uM; and D′: >5 μM.

T1 sequence (P48775 whole entry): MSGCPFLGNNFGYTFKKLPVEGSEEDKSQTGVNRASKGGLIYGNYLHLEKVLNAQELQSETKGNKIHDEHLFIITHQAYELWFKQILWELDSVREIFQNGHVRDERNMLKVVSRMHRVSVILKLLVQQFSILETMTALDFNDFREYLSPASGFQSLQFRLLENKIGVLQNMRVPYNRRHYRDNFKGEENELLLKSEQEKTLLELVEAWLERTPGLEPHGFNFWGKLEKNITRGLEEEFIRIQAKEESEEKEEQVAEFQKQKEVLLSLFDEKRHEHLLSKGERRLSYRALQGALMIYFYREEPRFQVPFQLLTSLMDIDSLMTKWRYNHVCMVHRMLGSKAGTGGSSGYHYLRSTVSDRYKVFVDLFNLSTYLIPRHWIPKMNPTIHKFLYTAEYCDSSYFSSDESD
T2 sequence (P14902 whole entry): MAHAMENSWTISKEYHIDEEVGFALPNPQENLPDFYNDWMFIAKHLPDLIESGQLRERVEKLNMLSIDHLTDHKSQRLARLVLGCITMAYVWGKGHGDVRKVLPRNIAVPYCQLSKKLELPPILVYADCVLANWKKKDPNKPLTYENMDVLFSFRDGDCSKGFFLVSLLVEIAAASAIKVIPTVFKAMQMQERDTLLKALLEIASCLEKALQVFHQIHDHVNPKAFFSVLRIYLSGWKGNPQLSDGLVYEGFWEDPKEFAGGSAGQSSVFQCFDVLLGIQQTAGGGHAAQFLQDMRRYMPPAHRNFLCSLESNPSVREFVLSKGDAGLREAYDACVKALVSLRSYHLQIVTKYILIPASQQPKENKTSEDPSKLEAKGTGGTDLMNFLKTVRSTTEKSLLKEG

As to `CC(=O)Nc1cccc(C(=O)N[C@H]2[C@@H]3C[C@@](O)(c4cc(Cl)cc5[nH]ncc45)C[C@@H]32)c1` [Example 151, 3-acetamido-N-((1R,3r,5S,6r)-3-(6-chloro-1H-indazol-4-yl)-3-hydroxybicyclo[3.1.0]hexan-6-yl)benzamide], the 50% inhibitory concentration (IC50) in assay [1] is ≤ 500 nM; in assay [2] it was 1000 to 5000 nM.
For `O=C(Nc1ccc(Cl)cc1)N[C@H]1[C@@H]2C[C@@](O)(c3cc(Cl)cc4[nH]ncc34)C[C@@H]21` [Example 121, 1-((1R,3r,5S,6r)-3-(6-chloro-1H-indazol-4-yl)-3-hydroxybicyclo[3.1.0]hexan-6-yl)-3-(4-chlorophenyl)urea] the same measures were ≤ 500 nM and ≤ 500 nM.
For `CC(=O)N1C[C@@H]2CN(c3cc(Cl)cc4cncn34)C[C@@H]2C1(C)C` (racemic) [Example 43, Racemic-1-((3aS,6aR)-5-(7-chloroimidazo[1,5-a]pyridin-5-yl)-1,1-dimethylhexahydropyrrolo[3,4-c]pyrrol-2(1H)-yl)ethanone] the same measures were > 5000 nM and > 5000 nM.
For `O=C(N[C@H]1[C@@H]2C[C@@](O)(c3cc(Cl)cc4[nH]ncc34)C[C@@H]21)c1ccncc1` [Example 83, N-((1R,3r,5S,6r)-3-(6-chloro-1H-indazol-4-yl)-3-hydroxybicyclo[3.1.0]hexan-6-yl)isonicotinamide], the figures for the IC50 in assay [1] and in assay [2] were ≤ 500 nM and 500 to 1000 nM, respectively.
For `O=C(Nc1ccccc1)N[C@H]1[C@@H]2C[C@@](O)(c3cc(Cl)cc4[nH]ncc34)C[C@@H]21` [Example 115, 1-((1R,3r,5S,6r)-3-(6-chloro-1H-indazol-4-yl)-3-hydroxybicyclo[3.1.0]hexan-6-yl)-3-phenylurea] the same measures were ≤ 500 nM and 1000 to 5000 nM.
As for `O=C(N[C@H]1[C@@H]2C[C@@](O)(c3cc(Cl)cc4[nH]ncc34)C[C@@H]21)c1ccc(F)c(Cl)c1` [Example 150, 3-chloro-N-((1R,3r,5S,6r)-3-(6-chloro-1H-indazol-4-yl)-3-hydroxybicyclo[3.1.0]hexan-6-yl)-4-fluorobenzamide], the 50% inhibitory concentration (IC50) in assay [1] and in assay [2] was ≤ 500 nM throughout.
As to `CC(=O)N1C[C@H]2CC(C(O)c3cc(Cl)cc4[nH]ncc34)C[C@H]2C1` (stereo partly drawn) [Example 104, 1-((3aR,6aS)-5-((6-chloro-1H-indazol-4-yl)(hydroxy)methyl)hexahydrocyclopenta[c]pyrrol-2(1H)-yl)ethanone], the IC50 in assay [1] was 500 to 1000 nM; in assay [2], > 5000 nM.
As for `N#Cc1ccc(C(=O)N2C[C@@H]3C[C@@](O)(c4cc(Cl)cc5[nH]ncc45)C[C@@H]3C2)cc1` [Example 42, 4-((3aR,5r,6aS)-5-(6-chloro-1H-indazol-4-yl)-5-hydroxyoctahydrocyclopenta[c]pyrrole-2-carbonyl)benzonitrile], the values for the IC50 in assay [1] and in assay [2] were ≤ 500 nM and 1000 to 5000 nM, respectively.
In the case of `O=C(N[C@H]1[C@@H]2C[C@@](O)(c3cc(Cl)cc4cn[nH]c34)C[C@@H]21)c1ccncc1` [Example 130, N-((1R,3r,5S,6r)-3-(5-chloro-1H-indazol-7-yl)-3-hydroxybicyclo[3.1.0]hexan-6-yl)isonicotinamide], the concentration for half-maximal inhibition (IC50) is 1000 to 5000 nM in assay [1] and 500 to 1000 nM in assay [2].
On the same counts, the results for `CC1(C)[C@H]2CN(c3cc(C(F)(F)F)cn4cncc34)C[C@H]2CN1S(C)(=O)=O` (racemic) [Example 46, Racemic-8-((3aR,6aS)-4,4-dimethyl-5-(methylsulfonyl)hexahydropyrrolo[3,4-c]pyrrol-2(1H)-yl)-6-(trifluoromethyl)imidazo[1,5-a]pyridine] are 1000 to 5000 nM and > 5000 nM.
For `O=C(N[C@H]1[C@@H]2C[C@@](O)(c3cc(Cl)cc4[nH]ncc34)C[C@@H]21)c1cccc(Cl)c1` [Example 124, 3-chloro-N-((1R,3r,5S,6r)-3-(6-chloro-1H-indazol-4-yl)-3-hydroxybicyclo[3.1.0]hexan-6-yl)benzamide] the same measures were ≤ 500 nM and ≤ 500 nM.

Broadly, the IC50 is the concentration that inhibits the measured activity by half. Read a high IC50 as weaker potency in that assay.
